Experimental findings from article PMC4418728, “A High Throughput Protein Microarray Approach to Classify HIV Monoclonal Antibodies and Variant Antigens” (PLoS ONE, 2015) are described below.

No end group written: not given here.

One assay concerns mAb 4E10. The assay is described as follows: In-solution competition ELISA. In kind it is binding, human. As to conditions: for IC50: read-out: IC50 of competitor peptide, mAb 4E10. The protocol:
(§1) The in-solution competition ELISA was performed according to Stanfield and colleagues. In brief, 96-well plates were coated o/n with 200 ng/well neutravidin (Pierce) in PBS at 4°C and blocked with 4% NFDM for 1 h at RT. Different competing MPER peptide analogs (serially diluted 1:3 in 1% NFDM at a starting concentration of 0.04 mM) were mixed with a constant concentration of biotinylated peptide bio-0705 (0.1 μg/ml) or bio-57 (0.1 μg/ml) and the corresponding human mAb 4E10 (0.5 μg/ml) or mAb 2F5 (0.2 μg/ml), respectively. The antibody/peptide mixture was incubated for 2 h at 37°C, subsequently transferred to the neutravidin plates and incubated at 37°C for 20 min. Bound antibodies were detected with HRP labeled goat anti human F(ab)2 conjugate (Pierce). After 1 h at RT, wells were developed, stopped and read as described above. The concentration of competitor peptide corresponding to a half-maximal signal (IC50) was determined by nonlinear fit interpolation of the resulting binding curve (GraphPad PRISM 5.0 software). Each peptide competitor was tested in duplicate in at least two separate experiments.

For the next assay, the system named is mAb 2F5. The assay is described as follows: In-solution competition ELISA. In kind it is binding, human. As to conditions: competition with biotinylated peptide bio-57 (0.1 μg/ml) for mAb 2F5 (0.2 μg/ml), peptide 1:3 dilutions from 0.04 mM, 2 h at 37°C, duplicate, at least two experiments; for IC50: read-out: IC50 of competitor peptide, mAb 2F5. The protocol: as §1

Where [1] appears, read: competition with biotinylated peptide bio-0705 (0.1 μg/ml) for mAb 4E10 (0.5 μg/ml), peptide 1:3 dilutions from 0.04 mM, 2 h at 37°C, duplicate, at least two experiments.

With “ELDKWASLWNWFNITNWLWYIKIEELKSKIKRIENEIKRIKK [C22-pT, reference compound]”, the values for the half-inhibitory concentration (IC50) in the assay on mAb 4E10 (setting [1]) and in the assay on mAb 2F5 were 3270 nM and above 10000 nM, respectively.

For “ELDKWASLWNWFDITNWLWYIKIEELKSKIKRIENEIKRIKK [compound 09128]”, the IC50 in the assay with mAb 4E10 (setting [1]) came out at 0.9 nM; with mAb 2F5, 76.3 nM. In addition, in the assay on mAb 4E10 (in-solution competition assay), the “enhancement in IC50 compared to control peptide 94.1, mAb 4E10” value is reported as “more than 80 fold”.

As for “WTLNIFWIWSYLDWSNKKKK-NH2 [compound 08023, scrambled negative control peptide based on 09122]”, the “IC50 of competitor peptide, mAb 4E10” value in the assay on mAb 4E10 (setting [1]) is reported as “did not interact”. Besides, in the assay on mAb 2F5, the “IC50 of competitor peptide, mAb 2F5” value was “did not interact”.
